According to a melting point compilation (Tetko et al.; mined from patent text by program, amines drawn as free bases though some values may be those of a salt):

With `COc1ccc(S(=O)(=O)NCc2ccc(-n3c(-c4cccnc4N)nc4cc(Br)cnc43)cc2)cc1` the melting point was 188 to 190 °C.
Work on `OC1CSC(Oc2ccc(-c3ccc(Cl)nc3)nc2)C(O)C1O` (stereo unspecified) yielded a melting point of 170 °C.
`O=C(O)c1ccc(-c2c(-c3ccccc3)[nH]c3ccccc23)cc1` showed a melting point of 252 to 253 °C.
Compound `CCn1cc(-c2cnccn2)ccc1=O` has a melting point of 120 to 121 °C.
For `Clc1ccc(CCOc2ncnc3ccccc23)cc1`, the melting point was 57 to 58 °C.
In the case of `NC(=O)c1cccc(-c2ccc3nnn(Cc4ccc5ncccc5c4)c3n2)c1`, the melting point was 263 to 265 °C.
In the case of `Nc1cc(-c2ccco2)ccc1Nc1cccc(-n2ccnc2)c1`, the melting point was 191 to 194 °C.
Compound `N#Cc1cccc(C=CC(=O)c2ccc(F)cc2)c1` has a melting point of 170 to 172 °C.
Compound `CCCOc1ccc([N+](=O)[O-])cc1C1=NC(=O)C2=NC=NC2=N1` has a melting point of 254 to 256 °C.
With `Cc1ccc(-c2ncc(N(CCCCOCC(=O)O)C(C)C)nc2-c2ccc(C)cc2)cc1` the melting point was 155 to 156 °C.
Compound `CCc1sc2c(c1C(=O)CCCN1CCC(c3noc4cc(F)ccc34)CC1)CCN(C(C)=O)C2` has a melting point of 93 to 95 °C.
With `Cc1ccc(Nc2cccc(O)c2)cc1` the melting point was 86 to 88 °C.
For `COC(=O)c1cc(C(=O)OC)cc(-c2ccccc2)c1`, the melting point was 91 to 92 °C.
For `COc1ccc2cc(Br)cc(C)c2n1`, the melting point was 89 to 91 °C.
In the case of `O=C(O)CNS(=O)(=O)c1cc2ccc(Cl)cc2cc1Cl`, the melting point was 185 to 188 °C.
`CCSc1cc(C)nc(SCC)c1NC(=O)CCCCCSc1nc2ccccc2s1` gave a melting point of 81 to 83 °C.
Work on `O=C1Nc2ccc(Cl)cc2[C@@](/C=C/C2CC2)(C(F)(F)F)O[C@H]1C1CC1` (relative stereo) yielded a melting point of 143 to 144 °C.
In the case of `CCc1[nH]n(C2CCCC2)c2nc(-c3ccccc3)nc(=O)c1-2`, the melting point was 221 to 222 °C.
`CCC1(O)OC(=O)c2ccc(Oc3ccc(C(F)(F)F)cc3Cl)cc21` (stereo unspecified) showed a melting point of 120 to 122 °C.
`COc1ccc(C(=O)c2nccs2)cc1OCc1ccc2ccccc2c1` showed a melting point of 80 °C.
Work on `COc1ccccc1N1CCN(c2nc3cccc4c3n2CCC4)CC1` yielded a melting point of 199 to 201 °C.
With `CC(=O)CNC(=O)c1cc2c(nc(C)n2C)c2c1CCC1(Cc3ccccc3C1)N2` the melting point was 222 to 223 °C.
With `CCCn1c(=O)c2[nH]c(-c3cc(C)n(CC(=O)Nc4ccc(N(C)C)cc4)n3)nc2n(CCC)c1=O` the melting point was > 300 °C.
`Clc1ccc(OCc2ccccc2)c(OCC2CO2)c1Cl` (stereo unspecified) gave a melting point of 59 to 61 °C.
`O=C(NCCSCc1ccc(Cl)cc1)c1c(Cl)cccc1Cl` showed a melting point of 104 to 106 °C.
`COC(=O)[C@H]1OC(O)[C@H](OC(=O)C(C)C)[C@@H](OC(=O)C(C)C)[C@@H]1OC(=O)C(C)C` (stereo partly specified) gave a melting point of 89 °C.
With `CN1C(=O)N(CC(=O)O)C(=O)C1(C)C` the melting point was 130 to 132 °C.
With `CCCCCCCCCCCCCCCCCCOC(=O)c1cc(C(=O)OCCCCCCCCCCCCCCCCCC)c(C(=O)O)cc1C(=O)O` the melting point was 133 to 137 °C.
Compound `CC(=O)OC1CSC(Oc2cc(F)cnc2Cl)C(OC(C)=O)C1OC(C)=O` (stereo unspecified) has a melting point of 185 °C.
With `CSC1=CC2=CN(S)NN2C(C)=N1` the melting point was 256 to 258 °C.
In the case of `O=C(CCCOc1cccc(CNC(=O)c2nc3ccccc3c(=O)[nH]2)c1)Nc1nc[nH]n1`, the melting point was 189 to 190 °C.
In the case of `CN1C(=O)C2(CCN(CC(O)C3COc4ccccc4O3)CC2)c2ccccc21` (stereo unspecified), the melting point was 113 to 128 °C.
`O=C1C(c2cccc(Br)c2)n2cncc2CN1Cc1ccsc1` (stereo unspecified) gave a melting point of 43 to 45 °C.
In the case of `CCOC(=O)c1cc(OC)c(OCc2nc(C)c(C)nc2C)c(OC)c1`, the melting point was 122 to 123 °C.
For `C=CCn1cc(C(=O)O)c(=O)c2cc(F)c(F)c(F)c21`, the melting point was 194 to 197 °C.
Work on `O=C(c1ccccc1)c1cccc2c1SCC2C(=O)O` (stereo unspecified) yielded a melting point of 153 to 156 °C.
Work on `COc1ccc(-c2nnc3c4ccccc4c(Nc4ccc(-c5nn[nH]n5)cc4)nn23)cc1` yielded a melting point of 281 to 284 °C.
In the case of `Cc1ccc(N)cc1Nc1ncc(-c2ccncc2)o1`, the melting point was 158 °C.
`COc1nc(-n2cc(C(=O)O)c(=O)c3cc(F)c(N4CC(N)C4)c(Cl)c32)c(F)cc1F` showed a melting point of 171 to 175 °C.
For `COC(=O)c1ccc(CCc2csc(NC(C)=O)n2)cc1`, the melting point was 170 to 171 °C.
For `CSc1nc(-c2ccncc2)nc(=O)n1C`, the melting point was 216 to 218 °C.
Work on `NC1=C2C=NN=C2N(c2ccc(Cl)c(Cl)c2)CN1c1ccccc1` yielded a melting point of 306 to 307 °C.
Work on `COC(=O)c1cc(N)cc(-n2cccc2)c1` yielded a melting point of 116 to 118 °C.
Work on `O=C1OC(=O)c2nc3ccc(OC(F)F)cc3cc21` yielded a melting point of 158 °C.
In the case of `CCOC(=O)C1(F)C(=O)NC(=O)NC1ON=C1CCC1` (stereo unspecified), the melting point was 188 to 189 °C.
`Cc1cccc(C(=O)C2CC2)c1N` gave a melting point of 64 °C.
With `O=C1CCCN1C(=O)Oc1ccc([N+](=O)[O-])cc1` the melting point was 122 to 123 °C.
`CC(=NC1CCCCC1)N(C)C=Nc1ccc(C)cc1C` gave a melting point of 37 to 39 °C.
With `CCCN1C(=O)C2(CC)CC(c3ccc(N)cc3)(C2)C1=O` the melting point was 124 to 125 °C.
With `Cc1ccc(C2C3=C(CC(C)(C)CC3=O)NC3=C2C(=O)CC(C)(C)C3)cc1[N+](=O)[O-]` the melting point was > 300 °C.
Work on `O=C1OC(CN2CCC(O)(c3ccc(F)cc3)CC2)CN1c1ccccc1` (stereo unspecified) yielded a melting point of 128 to 129 °C.
